Experimental findings from patent US20180208605A1, “Substituted Aza Compounds as IRAK-4 Inhibitors” (AURIGENE DISCOVERY TECHNOLOGIES LIMITED, priority 2015, published 2018) are described below.

Where a name gives a salt, the structure may show the parent alone.

The target in this assay is T1, recombinant IRAK-4 kinase (Homo sapiens, UniProt Q9NWZ3).
T1 construct: purchased Millipore, USA
T1 sequence (Q9NWZ3 1-460): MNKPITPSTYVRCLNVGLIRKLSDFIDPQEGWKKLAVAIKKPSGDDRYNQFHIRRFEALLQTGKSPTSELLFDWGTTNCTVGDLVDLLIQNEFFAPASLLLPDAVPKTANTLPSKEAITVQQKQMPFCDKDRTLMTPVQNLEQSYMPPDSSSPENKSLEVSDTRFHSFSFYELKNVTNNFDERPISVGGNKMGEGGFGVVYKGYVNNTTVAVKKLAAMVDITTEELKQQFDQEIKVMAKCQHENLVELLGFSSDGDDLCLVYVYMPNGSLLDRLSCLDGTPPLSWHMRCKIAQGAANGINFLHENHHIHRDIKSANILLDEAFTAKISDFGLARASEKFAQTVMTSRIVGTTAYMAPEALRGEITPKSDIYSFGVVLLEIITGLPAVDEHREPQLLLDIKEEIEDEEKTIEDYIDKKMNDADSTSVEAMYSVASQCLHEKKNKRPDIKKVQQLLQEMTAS
The assay is described as follows: IRAK-4 Biochemical Assay (TR-FRET, percent inhibition). The following applies: TR-FRET, 20 μM ATP, 100 nM Biotin Histone H3; for inhibition at 0.1 µM: read-out: % inhibition of IRAK-4 @0.1 μM, compound at 0.1 μM; for inhibition at 1 µM: read-out: % inhibition of IRAK-4 @ 1 μM, compound at 1 μM. The protocol:
Compounds were tested for their potential to inhibit IRAK-4 enzyme in a TR-FRET assay using recombinant IRAK-4 kinase from Millipore, USA. The assay buffer was 50 mM Tris-HCl pH 7.5, 20 mM MgCl2, 1 mM EGTA, 2 mM DTT, 3 mM MnCl2 and 0.01% Tween 20.5 ng of IRAK-4 kinase was used for the assay. After pre-incubation of enzyme with test compound for 30 minutes at room temperature, a substrate mixture containing 100 nM Biotin Histone H3 (Millipore, USA) and 20 μM ATP (Sigma, USA) was added and the reaction was incubated for 30 min. Post incubation, the reaction was stopped by the addition of stop mix containing 40 mM EDTA, 1 nM of Europium-Anti-Phospho-Histone H3 (Ser10) antibody (Perkin Elmer, USA) and 20 nM SureLight Allophycocyanin-Streptavidin (Perkin Elmer, USA). The fluorescence emission at 615 nm and 665 nm were measured at an excitation of 340 nm and the percent inhibition was estimated from the ratio of the fluorescence intensities [(F665/F615)×10000].

What is called inhibition is the drop in the measured response relative to a control, in per cent. `O=C(Nc1cc2sc(N3CCOCC3)nc2nc1N1CCCCC1)c1cccc(N2CC[C@H](O)C2)n1` [Example 42, (S)-6-(3-hydroxypyrrolidin-1-yl)-N-(2-morpholino-5-(piperidin-1-yl)thiazolo[4,5-b]pyridin-6-yl)picolinamide hydrochloride]: the inhibition at 0.1 µM was 94% and the inhibition at 1 µM was determined as 98%.

Regarding `Nc1ccc(-c2cccc(C(=O)Nc3cc4oc(N5CCOCC5)nc4nc3N3CCOCC3)n2)cn1` [Example 92, 6′-amino-N-(2,5-dimorpholinooxazolo[4,5-b]pyridin-6-yl)-[2,3′-bipyridine]-6-carboxamide hydrochloride], the inhibition at 0.1 µM came to 78% and the inhibition at 1 µM came out at 96%.

Take `Cc1ccc(-c2nc3nc(N4CCOCC4)oc3cc2NC(=O)c2coc(-c3ccnc(C)c3)n2)nc1` [Example 14, N-(5-(5-methylpyridin-2-yl)-2-morpholinooxazolo[4,5-b]pyridin-6-yl)-2-(2-methylpyridin-4-yl)oxazole-4-carboxamide]: the inhibition at 0.1 µM was 99% and the inhibition at 1 µM came out at 100%.

On to `Cc1cc(-c2nc(C(=O)Nc3cc4sc(N5CCN(C(=O)CO)CC5)nc4nc3N3CCCCC3)co2)ccn1` [Example 10, N-(2-(4-(2-hydroxyacetyl)piperazin-1-yl)-5-(piperidin-1-yl)thiazolo[4,5-b]pyridin-6-yl)-2-(2-methylpyridin-4-yl)oxazole-4-carboxamide hydrochloride], for which the inhibition at 0.1 µM was determined as 100% and the inhibition at 1 µM worked out at 100%.

For the compound `O=C(Nc1cc2sc(N3CCOCC3)nc2nc1N1CCCCC1)c1cccc(N2CCC(O)CC2)n1` [Example 56, 6-(4-hydroxypiperidin-1-yl)-N-(2-morpholino-5-(piperidin-1-yl)thiazolo[4,5-b]pyridin-6-yl)picolinamide], the inhibition at 0.1 µM came out at 95% and the inhibition at 1 µM came to 96%.

As for `O=C(Nc1cc2sc(N3CCOCC3)nc2nc1N1CCCCC1)c1cnn2cccnc12` [Example 104, N-(2-morpholino-5-(piperidin-1-yl)thiazolo[4,5-b]pyridin-6-yl)pyrazolo[1,5-a]pyrimidine-3-carboxamide hydrochloride], the inhibition at 0.1 µM amounted to 95% and the inhibition at 1 µM worked out at 97%.

Turning to `Cc1cc(-c2c[nH]c(C(=O)Nc3cc4sc(N5CCOCC5)nc4nc3N3CC[C@@H](O)C3)n2)ccn1` [Example 72, (R)-N-(5-(3-hydroxypyrrolidin-1-yl)-2-morpholinothiazolo[4,5-b]pyridin-6-yl)-4-(2-methylpyridin-4-yl)-1H-imidazole-2-carboxamide 2,2,2-trifluoroacetate], the inhibition at 0.1 µM came to 98% and the inhibition at 1 µM was found to be 97%.

As to `NC1CCCN(c2ccn3ncc(C(=O)Nc4cc5sc(N6CCOCC6)nc5nc4N4CC[C@@H](O)C4)c3n2)C1` (stereo partly drawn) [Example 102, 5-(3-aminopiperidin-1-yl)-N-(5-((R)-3-hydroxypyrrolidin-1-yl)-2-morpholinothiazolo[4,5-b]pyridin-6-yl)pyrazolo[1,5-a]pyrimidine-3-carboxamide hydrochloride], the inhibition at 0.1 µM turned out to be 21% and the inhibition at 1 µM stood at 56%.

Regarding `N[C@H]1CCN(c2cccc(C(=O)Nc3cc4sc(N5CCOCC5)nc4nc3N3CCCCC3)n2)C1` [Example 26, (S)-6-(3-aminopyrrolidin-1-yl)-N-(2-morpholino-5-(piperidin-1-yl)thiazolo[4,5-b]pyridin-6-yl)picolinamide], the inhibition at 0.1 µM is 87% and the inhibition at 1 µM was determined as 92%.

In the case of `O=C(Nc1cc2sc(N3CCOCC3)nc2nc1N1CCCCC1)c1cccc(N2CCC[C@@H](O)C2)n1` [Example 30, (R)-6-(3-hydroxypiperidin-1-yl)-N-(2-morpholino-5-(piperidin-1-yl)thiazolo[4,5-b]pyridin-6-yl)picolinamide], the inhibition at 0.1 µM was found to be 98% and the inhibition at 1 µM was 99%.

Take `NCCNc1ccn2ncc(C(=O)Nc3cc4sc(N5CCOCC5)nc4nc3C3CC3)c2n1` [Example 22, 5-((2-aminoethyl)amino)-N-(5-cyclopropyl-2-morpholinothiazolo[4,5-b]pyridin-6-yl)pyrazolo[1,5-a]pyrimidine-3-carboxamide]: the inhibition at 0.1 µM was determined as 97% and the inhibition at 1 µM came to 98%.

Regarding `O=C(Nc1cc2oc(N3CCOCC3)nc2nc1N1CCCCC1)c1cnn2cccnc12` [Example 24, N-(2-morpholino-5-(piperidin-1-yl)oxazolo[4,5-b]pyridin-6-yl)pyrazolo[1,5-a]pyrimidine-3-carboxamide], the inhibition at 0.1 µM was 97% and the inhibition at 1 µM was 97%.

Regarding `Cc1cc(-c2ccc(C(=O)Nc3cc4sc(N5CCOCC5)nc4nc3N3CCCC(O)(CO)C3)o2)ccn1` (centres unmarked) [Example 5, N-(5-(3-hydroxy-3-(hydroxymethyl)piperidin-1-yl)-2-morpholinothiazolo[4,5-b]pyridin-6-yl)-5-(2-methylpyridin-4-yl)furan-2-carboxamide hydrochloride], the inhibition at 0.1 µM amounted to 98% and the inhibition at 1 µM is 99%.

With `Cc1cc(-c2nc(C(=O)Nc3cc4oc(N5CCOCC5)nc4nc3N3CC[C@@H](OCC4CC4)C3)co2)ccn1` [Example 95, (R)-N-(5-(3-(cyclopropylmethoxy)pyrrolidin-1-yl)-2-morpholinooxazolo[4,5-b]pyridin-6-yl)-2-(2-methylpyridin-4-yl)oxazole-4-carboxamide], the inhibition at 0.1 µM was 80% and the inhibition at 1 µM was found to be 97%.

In the case of `O=C(Nc1cc2sc(N3CCOCC3)nc2nc1N1CCCCC1)c1cncc(N2CC[C@H](O)C2)n1` [Example 63, (S)-6-(3-hydroxypyrrolidin-1-yl)-N-(2-morpholino-5-(piperidin-1-yl)thiazolo[4,5-b]pyridin-6-yl)pyrazine-2-carboxamide], the inhibition at 0.1 µM came out at 95% and the inhibition at 1 µM is 95%.

As to `O=C(Nc1cc2sc(N3CCOCC3)nc2nc1N1CCCCC1)c1cccc(N2CCC(C(=O)O)CC2)n1` [Example 71, sodium 1-(6-((2-morpholino-5-(piperidin-1-yl)thiazolo[4,5-b]pyridin-6-yl)carbamoyl)pyridin-2-yl)piperidine-4-carboxylate], the inhibition at 0.1 µM amounted to 94% and the inhibition at 1 µM amounted to 96%.

For `Cc1cc(-c2nc(C(=O)Nc3cc4oc(N5CCOCC5)nc4nc3N3CC(C)(C)CC3=O)co2)ccn1` [Example 86, N-(5-(4,4-dimethyl-2-oxopyrrolidin-1-yl)-2-morpholinooxazolo[4,5-b]pyridin-6-yl)-2-(2-methylpyridin-4-yl)oxazole-4-carboxamide], the inhibition at 0.1 µM worked out at 65% and the inhibition at 1 µM worked out at 57%.

Regarding `Cc1cc(-c2cccc(C(=O)Nc3cc4sc(N5CCOCC5)nc4nc3N3CCC[C@@H](O)C3)n2)ccn1` [Example 41, (R)-N-(5-(3-hydroxypiperidin-1-yl)-2-morpholinothiazolo[4,5-b]pyridin-6-yl)-2′-methyl-[2,4′-bipyridine]-6-carboxamide], the inhibition at 0.1 µM amounted to 92% and the inhibition at 1 µM is 98%.

Consider `COC(=O)C1CN(c2cccc(C(=O)Nc3cc4sc(N5CCOCC5)nc4nc3N3CCCCC3)n2)C(=O)N1` (centres unmarked) [Example 48, methyl 1-(6-((2-morpholino-5-(piperidin-1-yl)thiazolo[4,5-b]pyridin-6-yl)carbamoyl)pyridin-2-yl)-2-oxoimidazolidine-4-carboxylate], for which the inhibition at 0.1 µM came out at 96% and the inhibition at 1 µM was determined as 100%.

Consider `Cc1cc(-c2nc(C(=O)Nc3cc4oc(N5CCOCC5)nc4nc3N3CCCC(O)(CO)C3)co2)ccn1` (centres unmarked) [Example 15, N-(5-(3-hydroxy-3-(hydroxymethyl)piperidin-1-yl)-2-morpholinooxazolo[4,5-b]pyridin-6-yl)-2-(2-methylpyridin-4-yl)oxazole-4-carboxamide hydrochloride], for which the inhibition at 0.1 µM was determined as 96% and the inhibition at 1 µM came to 100%.

`O=C(Nc1cc2sc(N3CCOCC3)nc2nc1N1CCCCC1)c1cccc(N2CC[C@@H](O)C2)n1` [Example 34, (R)-6-(3-hydroxypyrrolidin-1-yl)-N-(2-morpholino-5-(piperidin-1-yl)thiazolo[4,5-b]pyridin-6-yl)picolinamide]: the inhibition at 0.1 µM was 97% and the inhibition at 1 µM worked out at 99%.

In the case of `O=C(Nc1cc2sc(N3CCOCC3)nc2nc1N1CCCCC1)c1cccc(NCC2CCOCC2)n1` [Example 37, N-(2-morpholino-5-(piperidin-1-yl)thiazolo[4,5-b]pyridin-6-yl)-6-(((tetrahydro-2H-pyran-4-yl)methyl)amino)picolinamide], the inhibition at 0.1 µM was 75% and the inhibition at 1 µM amounted to 95%.
